≈ marks a conversion by molar mass, not a printed value. Like-named read-outs stand apart in the source and are kept apart here.
Legend:
E. coli CFT073 (UPEC) = test: MIC, standard microdilution assay, growing UPEC; format: cell-based, Escherichia coli; conditions: Escherichia coli, E. coli
Method in brief: (§1)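 Each strain was exposed to serially diluted compound in broth, in triplicate. The media were TSB for Shigella; CA-MHB at pH 7.4 (HEPES 40 mM) for S. aureus, P. aeruginosa and UPEC; and, for UPEC only, low-pH LPM (pH 5.5, 30 mM MES).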

P. aeruginosa DSM1117 = test: MIC, standard microdilution assay, growing P. aeruginosa; format: cell-based, Pseudomonas aeruginosa; conditions: Pseudomonas aeruginosa, DSM1117, P. aeruginosa
Method in brief: as §1

S. aureus DSM2569 = test: MIC, standard microdilution assay, growing S. aureus; format: cell-based, Staphylococcus aureus; conditions: Staphylococcus aureus, DSM2569; S. aureus; CA-MHB pH 7.4; read-out: MIC (μM) CA-MHB
Method in brief: as §1

S. flexneri 5a M90T = test: MIC in tryptic soy broth, S. flexneri; format: cell-based, Shigella flexneri; conditions: Shigella flexneri, 5AM90T, read-out: MIC (μM) TSB
Method in brief: as §1

non-growing UPEC CFT073 = test: Dilution-regrowth assay (screen, hit validation, dose-response) on stationary-phase UPEC; format: cell-based, Escherichia coli; conditions: Escherichia coli, E. coli, regrowth delay of non-growing bacteria, 24 h treatment, OD600 6 h after 2500-fold dilution, read-out: EC50
Method in brief: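 Regrowth (OD600 after 6 h, 37 °C) of diluted non-growing CFT073, following 24 h compound treatment of 24 h stationary cultures, defines activity relative to untreated control. Screen at 20 µM, validation at 20, 10, 5 µM (duplicates), dose–response in three biological replicates fitted by five-parameter logistic.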

[1] = tested on: intracellular S. flexneri 5a M90T in TC7 cells; test: microbe, parasite or virus in culture; format: cell-based, Shigella flexneri; conditions: for IC50: Shigella flexneri, TC7, 14 h
Source text: Nonproliferating bacterial pathogens frequently inhabit intracellular environments, but establishing relevant infection models for high-throughput testing is challenging. Therefore, we firstly tested ability of the hit compounds to cross the eukaryotic cytoplasmic membrane barrier and inhibit growth of S. flexneri within the cytoplasm of the TC7 human colon adenocarcinoma cell line[59]. To this end, we developed a new, fluorescence-based method that enables real-time monitoring of growth of intracellular Shigella. We used S. flexneri 5a M90T strain producing the AfaE adhesin that enhances bacterial adhesion to epithelial cells and allows synchronization of invasion. The strain was further modified to constitutively express super-folder GFP (sfGFP), which enables monitoring bacterial growth by fluorescence measurement. The epithelial cells were grown to confluence and infected with bacteria at an MOI (multiplicity of infection) of 50. […] Following bacterial adhesion and invasion, the cells were incubated with varying concentrations of the hit compounds and intracellular bacterial growth was tracked by measuring green fluorescence.
The cells were split using trypsin, seeded in 96-well plates for infection, and grown to confluence, corresponding to approximately 40,000 cells per well.
A single colony of S. flexneri was inoculated into TSB supplemented with 50 μg/ml spectinomycin and incubated overnight at 37°C with agitation. The overnight culture was diluted 1:200 in fresh TSB, and the bacteria were grown at 37 °C until the OD600 reached 0.3–0.4, corresponding to approximately 2 × 10^7 CFU/ml. Bacteria were pelleted by centrifugation, washed twice with sterile PBS, and resuspended in infection solution (serum-free DMEM supplemented with 20 mM HEPES, pH 7.4). Just prior to infection, the medium was withdrawn, and the cells were washed twice with sterile PBS. The bacterial inoculum (MOI 50, 2 × 10^7 CFU/ml) was added to all wells except the no-infection control. The plates were incubated at room temperature for 15 min to allow bacterial adhesion, followed by a 1 h incubation at 37 °C with 5% CO2 to facilitate bacterial invasion.
Twofold serial dilutions of the drugs were prepared in infection solution containing 50 μg/ml gentamicin in a 96-well plate. After the invasion period, the bacterial inoculum was removed, and the serial dilutions of the drugs were added to the wells, except for the no-drug control. […] […] The experiments were performed in triplicates on separate days.
Statistical significance of the drug effects was assessed using a one-way ANOVA followed by Dunnett’s test, comparing each treatment to the drug-free control. Statistical significance of the differences in chemical characteristics between the hit compounds and the Prestwick library was assessed using a Mann–Whitney test. Statistical significance was set at P ≤ 0.05. A five-parameter logistic equation was used for asymmetric sigmoidal curve fitting and for EC50 and IC50 determination. The Venn diagram in Fig. 1F was prepared using BioVenn web application. Characteristics of the chemical and physical properties of Prestwick library compounds were obtained from Supplementary Table S1 from reference. Characteristics of the hit compounds not included in the Prestwick library were retrieved from the PubChem database.

[2] = pH 7.4, CA-MHB, read-out: MIC (μM) CA-MHB
[3] = CA-MHB pH 7.4, read-out: MIC (μM) CA-MHB
[4] = TC7 cells infected with GFP-expressing S. flexneri, 14 h treatment
[5] = 1:4 diluted CA-MHB pH 7.4, read-out: MIC (μM) 1:4 CA-MHB

SMILES: NC1CCN(c2nc3c(cc2F)c(=O)c(C(=O)O)cn3-c2ccc(F)cc2F)C1 (stereo not shown) [Tosufloxacin]
- MIC (E. coli CFT073 (UPEC); LPM pH 5.5, read-out: MIC): 0.125 µM (≈ 0.0505 µg/mL)
- MIC (E. coli CFT073 (UPEC); [2]): 0.05 µM (≈ 0.0202 µg/mL)
- MIC (P. aeruginosa DSM1117; [3]): 1 µM (≈ 0.404 µg/mL)
- MIC (S. aureus DSM2569): 0.25 µM (≈ 0.101 µg/mL)
- MIC (S. flexneri 5a M90T): 0.0156 µM (≈ 0.00632 µg/mL)
- EC50 (non-growing UPEC CFT073; LPM pH 5.5): 10300 nM
- EC50 (non-growing UPEC CFT073; pH 7.4, 1:4 CA-MHB): 753 nM
- IC50 [1]: 25 nM
- Fluorescence intensity (RFU), Mean, 2 x MIC [1, 4]: 4963.31 RFU
- Fluorescence intensity (RFU), Mean, 4 x MIC [1, 4]: 3475.06 RFU
- Fluorescence intensity (RFU), Mean, 8 x MIC [1, 4]: 3341.83 RFU
- Fluorescence intensity (RFU), Mean, 16 x MIC [1, 4]: 2905.56 RFU
- Fluorescence intensity (RFU), Mean, 32 x MIC [1, 4]: 2463.67 RFU
- Fluorescence intensity (RFU), Mean, MIC [1, 4]: 6769 RFU

SMILES: O=C(O)c1cn(C2CC2)c2cc(N3CCNCC3)c(F)cc2c1=O [Ciprofloxacin]
- MIC (E. coli CFT073 (UPEC); LPM pH 5.5, read-out: MIC): 0.25 µM (≈ 0.0828 µg/mL)
- MIC (E. coli CFT073 (UPEC); [2]): 0.125 µM (≈ 0.0414 µg/mL)
- MIC (P. aeruginosa DSM1117; [5]): 2 µM (≈ 0.663 µg/mL)
- MIC (P. aeruginosa DSM1117; [3]): 2 µM (≈ 0.663 µg/mL)
- MIC (S. aureus DSM2569): 2 µM (≈ 0.663 µg/mL)
- MIC (S. flexneri 5a M90T): 0.0625 µM (≈ 0.0207 µg/mL)
- EC50 (non-growing UPEC CFT073; pH 7.4, 1:4 CA-MHB): 1380 nM
- IC50 [1]: 54 nM
- Fluorescence intensity (RFU), Mean, 0.5 x MIC [1, 4]: 6160.67 RFU
- Fluorescence intensity (RFU), Mean, 2 x MIC [1, 4]: 3512.33 RFU
- Fluorescence intensity (RFU), Mean, 4 x MIC [1, 4]: 3078.86 RFU
- Fluorescence intensity (RFU), Mean, 8 x MIC [1, 4]: 2399.75 RFU
- Fluorescence intensity (RFU), Mean, 16 x MIC [1, 4]: 1781.06 RFU
- Fluorescence intensity (RFU), Mean, 32 x MIC [1, 4]: 1734.42 RFU
- Fluorescence intensity (RFU), Mean, MIC [1, 4]: 4637.36 RFU

SMILES: CN1CCN(c2cc3c(cc2F)c(=O)c(C(=O)O)cn3-c2ccc(F)cc2)CC1 [Difloxacin]
- MIC (E. coli CFT073 (UPEC); LPM pH 5.5, read-out: MIC): 0.0625 µM (≈ 0.025 µg/mL)
- MIC (E. coli CFT073 (UPEC); [2]): 0.25 µM (≈ 0.0998 µg/mL)
- MIC (P. aeruginosa DSM1117; [5]): 8 µM (≈ 3.2 µg/mL)
- MIC (P. aeruginosa DSM1117; [3]): 8 µM (≈ 3.2 µg/mL)
- MIC (S. aureus DSM2569): 1 µM (≈ 0.399 µg/mL)
- MIC (S. flexneri 5a M90T): 0.25 µM (≈ 0.0998 µg/mL)
- EC50 (non-growing UPEC CFT073; LPM pH 5.5): 9950 nM
- EC50 (non-growing UPEC CFT073; pH 7.4, 1:4 CA-MHB): 6460 nM
- IC50 [1]: 183 nM
- Fluorescence intensity (RFU), Mean, 0.25 x MIC ([1]; TC7 cells infected with GFP-expressing S. flexneri, 14 h treatment, 0.25 x MIC): 8915.25 RFU
- Fluorescence intensity (RFU), Mean, 0.5 x MIC [1, 4]: 8126.42 RFU
- Fluorescence intensity (RFU), Mean, 2 x MIC [1, 4]: 3233.81 RFU
- Fluorescence intensity (RFU), Mean, 4 x MIC [1, 4]: 2824.97 RFU
- Fluorescence intensity (RFU), Mean, 8 x MIC [1, 4]: 2319.67 RFU
- Fluorescence intensity (RFU), Mean, 16 x MIC [1, 4]: 1827.36 RFU
- Fluorescence intensity (RFU), Mean, 32 x MIC [1, 4]: 1634.92 RFU
- Fluorescence intensity (RFU), Mean, MIC [1, 4]: 3866.17 RFU

Source: article PMC11992225, “Antibacterial compounds against non-growing and intracellular bacteria” (npj Antimicrobials and Resistance, 2025)
